Here are results for five molecules from patent US20180020669A1, “Methods for the Inhibition and Dispersal of Biofilms” (priority 2015, published 2018).

In test [1] the test system is E. coli K12 single-knockout mutants. The test is described as follows: Growth assay of Keio library redox mutants. Type of test: cell-based. As to the method:
To determine whether auranofin acts on the antioxidant pathway mutants from the Keio library, containing single-knockout mutants for all non-essential genes of E. coli K12 were tested in a growth assay.
Auranofin stock solution (20 mg/ml) in dimethyl sulfoxide (DMSO) was serially diluted in DMSO and each dilution added in duplicate to a 96-well plate to a final DMSO concentration of 2% (v/v). An overnight culture of E. coli mutants and wild type were diluted 1:100 in Luria Bertani (LB) broth and 150 μl of this sample was added to each well of the 96-well plates. Control wells included an ‘untreated’ control with bacteria in the presence of 2% DMSO and a negative sample (containing […] growth media in the presence of 2% DMSO). Plates were incubated at […] for 22-24 h and bacterial growth assessed by absorbance at a wavelength of 595 nm. The minimum inhibitory concentration (MIC) was defined as the lowest concentration of compound that inhibited growth compared to the no-treatment control.

The subject of test [2] is rifampicin-resistant S. aureus mutants. The test is classed as cell-based, Staphylococcus aureus. To be noted: discs with 4 μg (4 μg each), TSB agar, overnight, data not shown.
The test system of the next test is S. aureus NCTC 8325. Type of test: cell-based, Staphylococcus aureus.
Test [3] concerns S. aureus (strain SH1000-GFP) in THP-1 cells. The test is described as follows: S. aureus infection of THP-1 cells (fluorescence microscopy). Type of test: cell-based, Staphylococcus aureus. The following applies: 1 μg/ml in 0.5% DMSO, moi 3, over 24 h. As to the method: THP-1, a human monocytic cell line was infected with S. aureus (strain SH1000-GFP) at a multiplicity of infection of 3 for 1.5. hours. Cells were washed 3 times and auranofin (1 μg/ml in 0.5% DMSO) or 0.5% DMSO was added. Cells were observed under a fluorescent microscope at various time points post infection (FIG. 3).

Test [4] deals with multi-drug resistant clinical isolates of K. pneumoniae. Type of test: cell-based, Klebsiella pneumoniae. The following applies: 100 μg disc; C204742, C68761, C188681, C71173. As to the method:
The ability of auranofin to inhibit the growth of four multi-drug resistant clinical isolates of K. pneumoniae was assessed. The clinical isolates were C204742 (resistant to ampicillin and gentamicin), C68761 (resistant to ampicillin, trimethoprim and sulfamethoxazole), C188681 (resistant to ampicillin, trimethoprim, sulfamethoxazole, ceftazidime, tobramycin and ciprofloxacin) and C71173 (resistant to ampicillin, trimethoprim, sulfamethoxazole, ceftazidime, tobramycin, gentamicin and ciprofloxacin). These strains have been previously described in Chowdhury et al., (2011) Antimicrob Agents Chemother 55: 3140-3149.
Bacterial colonies were picked and diluted 1/1000 in Luria broth (LB). 100 μL of each dilution was then streaked out on LB plates. Discs impregnated with 100 μg auranofin or 100 μg gentimicin or auranofin and gentamicin (100 μg each) were placed on top of the agar. The plates were incubated overnight at 37° C. and any zone of bacterial inhibition was noted.

The next test has as its system S. aureus. The test is described as follows: Resistance frequency assay. The following applies: CaMHB broth with serial dilutions of the compound. The test is classed as cell-based, Staphylococcus aureus.
The test system of test [5] is preformed S. aureus NCTC 8325 biofilms. Kind of test: Preformed biofilm assay (crystal violet). Type of test: cell-based, Staphylococcus aureus. As to the method:
The effect of auranofin, alone and in combination with antibiotics, on preformed S. aureus biofilms was assessed. Briefly S. aureus NCTC 8325 was plated in 96-well plates as described in Example 2 and incubated 37° C. for 24 hours. Biofilms were then washed 3 times with TSB and 150 μL of fresh TSB and 3 μL of auranofin at the appropriate dilution in DMSO was added to the wells in duplicate. Plates were again sealed with AeraSeal™ and reincubated 37° C. for 24 hours. Biofilm was then detected as described in above.

In test [6] the test system is S. aureus NCTC 8325 and clinical isolates. The test is described as follows: Disc assay for resistance development. The test is classed as cell-based, Staphylococcus aureus. To be noted: 4 μg disc, TSB agar, overnight. As to the method:
Bacteria were plated on TSB agar. 3M discs (impregnated with 4 μg auranofin, 4 μg rifampicin or DMSO alone) were placed on top of the agar. The plates were incubated overnight at 37° C. and any zone of bacterial inhibition was measured. Any bacterial colonies growing within this zone of inhibition were picked and subsequently analysed for potential resistance against the appropriate compound/antibiotic using a growth or biofilm formation assay as described above. […] These S. aureus Rif mutants were tested in a growth assay and their rifampicin resistance confirmed.

In the next test the test system is biofilm formation. The test is described as follows: Inhibition of biofilm formation (general description). The test is classed as cell-based. The following applies: organism not stated.
The next test concerns existing biofilms. Kind of test: Action against existing biofilms (general description). Type of test: cell-based. The following applies: for concentration for action against existing biofilms (not observed even at): organism not stated.
The subject of test [7] is A. baumannii (D2, A94 and ATCC 17978). The test is described as follows: Growth assay in LB, absorbance 595 nm. Type of test: cell-based, Acinetobacter baumannii. As to the method: In the first growth assay, three strains of A. baumannii (D2, A94 and ATCC 17978) were cultured in LB in the presence of 1.25, 2.5, 5, 10, 20 or 40 μg/mL auranofin or 1.56, 3.13, 6.25, 12.5, 25, 50, 100 or 200 μg/mL gentamicin for 22-24 hours. Bacterial strains were also grown in the absence of antibiotic, and these were used as controls. The bacterial growth was determined by the measurement of absorbance at 595 nm using a Synergy HT Bio-Tek plate reader. The growth of A. baumannii was then assessed as a percentage of the positive control (bacteria alone grown in the presence of 2% DMSO).
A second growth assay was then performed to determine the effect of a combination of auranofin and gentamicin on bacterial growth. Briefly, A. baumannii was cultured in LB medium for 22-24 hours in the presence of […], 2.5, 5, 10, 20 or 40 μg/ml auranofin and 0, 30, 100, 300 or 1000 μg/ml gentamicin before growth was determined by the measurement of absorbance at 595 nm using a Synergy HT Bio-Tek plate reader. The growth of A. baumannii was then assessed as a percentage of the positive control (bacteria alone grown in the presence of 2% DMSO).

In test [8] the test system is A. baumannii D2 biofilm formation. Kind of test: Biofilm prevention assay (crystal violet). Type of test: cell-based, Acinetobacter baumannii. To be noted: A. baumannii D2, 24 hours. As to the method: The effect of auranofin on the formation of A. baumannii D2 biofilm formation was assessed using the biofilm prevention assay described above in Example 2 with slight modifications. Briefly, A. baumannii D2 were grown overnight in LB media and diluted 1/100 before 150 μL was added to the wells of a flat bottomed 96-well plate. Three microliters of auranofin or gentamicin at the appropriate dilution in DMSO was added to the wells in duplicate. Controls included a positive control with bacteria alone with media and 2% DMSO and a negative (no bacteria) control with media containing 2% DMSO. Plates were sealed with AeraSeal™ and incubated at 37° C. for 24 hours. The plates were then washed three times with PBS, dried at 60° C. for 1 hour and stained with crystal violet for 1 hour. The plates were again washed three times with water, dried and scanned prior to the addition of 33% acetic acid to re-solubilize the crystal violet stain bound to the adherent cells. Absorbance was then measured at 595 nm and expressed as a percentage of the bacteria only control.

As to `CC[P](CC)(CC)=[Au][S][C@@H]1O[C@H](COC(C)=O)[C@@H](OC(C)=O)[C@H](OC(C)=O)[C@H]1OC(C)=O` [auranofin, 2,3,4,6-tetra-o-acetyl-1-thio-J-D-glucopyranosato-S-(triethylphosphine) gold], the “effect of depletion on sensitivity to auranofin” value in test [1] (depletion of gor) is reported as “little effect”. Also, the “sensitivity to auranofin compared to the wild-type strain” value in test [1] (mutant lacking gsha) and in [1] (mutant lacking gshb) was “more sensitive” each time. Besides, the “zone of inhibition on rifampicin-resistant mutants” value in [2] was “Zones of inhibition formed”. Moreover, the “development of resistant bacteria over time” value in the test on S. aureus NCTC 8325 (0.5, 1 or 5 μg/mL auranofin, or 0.5 μg/mL auranofin with 0.2 μg/mL rifampicin) is recorded as “no resistant bacteria were observed”. The “growth inhibitory effect in time kill assay” value in the test with S. aureus NCTC 8325 (auranofin 0.5, 1 or 5 μg/mL, TSB) was “concentration- and time-dependent”. For the same molecule, in test [3], the “intracellular and extracellular S. aureus growth in infected THP-1 cells” value is “inhibited intracellular and extracellular S. aureus growth”. In addition, the “growth inhibition, disc assay” value in test [4] is on record as “shows inhibitory activity against all four multi-drug resistant clinical isolates tested”. The “resistance of potential mutants picked from agar plates, growth assay” value in the test with S. aureus is “none of the potentially auranofin-resistant bacteria picked from agar plates were actually resistant”. Further, the “effect on the biofilm, compound alone” value in test [5] (5 μg/mL auranofin alone or 1.5 μg/mL rifampicin alone) is “only a partial effect”. Further, the “effect on existing S. aureus biofilm” value in [5] (20 μg/mL and 40 μg/mL auranofin) is listed as “essentially eliminating the biofilm”. Also, the “effect on existing S. aureus biofilms (crystal violet staining)” value in test [5] (24 hours treatment, FIG. 5) is “dose-dependent inhibitory effect”. In addition, the “bacterial colonies growing within the zone of inhibition (resistance)” value in [6] is on record as “No growth was observed”. For the same molecule, the zone of inhibition entry in test [6] (NCTC 8325 and clinical isolates incl. MRSA) is listed as “produced zones of inhibition”.

Regarding `CO[C@H]1/C=C/O[C@@]2(C)Oc3c(C)c(O)c4c(O)c(c(/C=N/N5CCN(C)CC5)c(O)c4c3C2=O)NC(=O)/C(C)=C\C=C\[C@H](C)[C@H](O)[C@@H](C)[C@@H](O)[C@@H](C)[C@H](OC(C)=O)[C@@H]1C` [rifampicin], in the test on S. aureus NCTC 8325 (0.2 μg/mL and 1 μg/mL rifampicin), the “time after which bacterial growth starts to increase (development of resistance)” value is reported as “about 10 hours”.

Turning to `CC[C@H]1OC(=O)[C@H](C)[C@@H](O[C@H]2C[C@@](C)(OC)[C@@H](O)[C@H](C)O2)[C@H](C)[C@@H](O[C@@H]2O[C@H](C)C[C@H](N(C)C)[C@H]2O)[C@](C)(O)C[C@@H](C)C(=O)[C@H](C)[C@@H](O)[C@]1(C)O` [erythromycin], the “concentration at which inhibition of biofilm formation is observed” value in the test with biofilm formation lay in the range of 0.1 to 0.3 µg/mL. Moreover, in the test with existing biofilms, the “concentration for action against existing biofilms (not observed even at)” value is > 3 µg/mL.

Regarding `CC(=O)NC[C@H]1CN(c2ccc(N3CCOCC3)c(F)c2)C(=O)O1` [linezolid], the “concentration at which inhibition of biofilm formation is observed” value with biofilm formation is ~6 µg/mL. Besides, the “shift between inhibition of biofilm formation and action against existing biofilms” value in the test with existing biofilms (at least) was ≥ 15 fold. Further, the “concentration for action against existing biofilms (not observed even at)” value in the test on existing biofilms is > 100 µg/mL.

For gentamicin, the entries for the “susceptibility in growth assay” value in test [7] (A. baumannii A94), in test [7] (A. baumannii ATCC 17978) and in [7] (A. baumannii D2) were “partially resistant”, “susceptible” and “completely resistant”, respectively. For the same molecule, in test [5] (0.9 or 3 μg/mL rifampicin, 25 or 75 μg/mL gentamicin), the “effect on biofilm mass, antibiotic alone” value is “no effect on biofilm mass”. In [8], the “concentration that completely prevented biofilm formation” value is > 20 µg/mL.
